Data: publication PMC6864762, “Angiotensin-I-Converting Enzyme Inhibitory Activity of Coumarins from Angelica decursiva” (Molecules, 2019)

What was measured:
ACE [1] = test system: ACE; set-up: method as in earlier work; conditions: ref 25 (Hyun et al.); cited from earlier work
ACE [2] = target: T1, ACE (Oryctolagus cuniculus, UniProt P12822); assay: ACE inhibitory activity assay with FAPGG as substrate; conditions: for Inhibitory effect on ACE (in words): structure–activity discussion of Table 2
T1 sequence (P12822 34-1310): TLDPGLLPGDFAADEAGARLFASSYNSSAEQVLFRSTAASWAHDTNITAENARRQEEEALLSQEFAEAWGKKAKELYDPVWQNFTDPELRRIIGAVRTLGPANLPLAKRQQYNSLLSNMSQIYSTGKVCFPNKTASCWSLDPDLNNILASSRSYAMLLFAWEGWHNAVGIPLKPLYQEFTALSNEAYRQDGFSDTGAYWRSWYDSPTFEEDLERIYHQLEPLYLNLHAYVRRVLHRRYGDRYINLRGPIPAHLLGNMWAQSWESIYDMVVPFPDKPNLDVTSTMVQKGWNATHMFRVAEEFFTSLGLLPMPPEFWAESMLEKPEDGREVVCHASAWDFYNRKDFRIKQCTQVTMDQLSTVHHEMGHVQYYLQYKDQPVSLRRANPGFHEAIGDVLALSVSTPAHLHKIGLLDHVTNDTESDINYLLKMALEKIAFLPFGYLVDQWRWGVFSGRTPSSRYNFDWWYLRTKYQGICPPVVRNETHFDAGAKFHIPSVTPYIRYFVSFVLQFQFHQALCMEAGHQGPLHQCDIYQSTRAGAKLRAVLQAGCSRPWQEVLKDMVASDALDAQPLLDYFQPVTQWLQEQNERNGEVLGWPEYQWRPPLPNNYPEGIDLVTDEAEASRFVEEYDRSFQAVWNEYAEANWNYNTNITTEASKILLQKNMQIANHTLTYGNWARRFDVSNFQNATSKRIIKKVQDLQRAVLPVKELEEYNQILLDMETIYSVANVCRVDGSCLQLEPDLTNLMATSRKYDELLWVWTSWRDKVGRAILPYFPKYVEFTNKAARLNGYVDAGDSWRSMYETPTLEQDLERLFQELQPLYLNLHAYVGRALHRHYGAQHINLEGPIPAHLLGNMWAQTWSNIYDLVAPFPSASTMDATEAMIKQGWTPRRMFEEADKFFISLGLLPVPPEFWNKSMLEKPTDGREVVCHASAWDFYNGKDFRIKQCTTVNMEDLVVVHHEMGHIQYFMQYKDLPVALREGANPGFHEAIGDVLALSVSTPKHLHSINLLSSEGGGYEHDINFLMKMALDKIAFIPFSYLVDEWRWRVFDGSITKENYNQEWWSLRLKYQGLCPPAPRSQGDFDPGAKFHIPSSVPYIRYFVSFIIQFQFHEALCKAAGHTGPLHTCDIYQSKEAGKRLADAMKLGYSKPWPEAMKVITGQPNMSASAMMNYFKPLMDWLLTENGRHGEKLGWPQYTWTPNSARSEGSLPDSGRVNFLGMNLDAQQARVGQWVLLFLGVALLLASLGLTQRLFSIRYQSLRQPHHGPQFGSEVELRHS
Experimental: The ACE inhibitory activity of 18 compounds was conducted according to Hyun et al. [8] and modified to use FAPGG as the substrate. In brief, FAPGG (0.5 mM) and various concentrations of the samples were completely dissolved in 50 mM Tris–HCl buffer (pH 7.5).

ACE [3] = target: T1, ACE; assay: Enzyme kinetics of ACE inhibition (Lineweaver–Burk and secondary plots); type: biochemical, rabbit; set-up: ACE (1 Unit, rabbit lung); purchased Sigma Chemical Company (St Louis, MO, USA); host or cells: rabbit lung (tissue-derived); conditions: for Type of Inhibition: Lineweaver–Burk plot and secondary plot, FAPGG 0.1–0.5 mM; for Ki: from secondary plot of slope (Km,app/Vmax,app) versus inhibitor
Experimental: All chemicals and solvents used for column chromatography were of reagent grade and purchased from commercial sources, unless otherwise stated.
To determine the inhibition mechanisms, ACE inhibition was evaluated by monitoring the effects of different concentrations of substrate […]. The reaction mixture consisted of different concentrations of FAPGG (0.1–0.5 mM), as the substrate, and ACE in 50 mM Tris–HCl buffer. Several concentrations of each sample were added to the reaction mixture. The tested concentrations of coumarins are as follows: 12 (0, 2.5, 5, and 10 µM); 13 (0, 2.5, 5, and 10 µM); 15 (0, 1.28, 2.56, and 5.12 µM). Inhibition constants (Ki) were determined by interpretation of the secondary plots from Lineweaver–Burk plot.

Row | SMILES | IC50 (ACE [2]) | other results
1 | CC(C)(O[C@@H]1O[C@H](CO)[C@@H](O)[C@H](O)[C@H]1O)[C@H]1Cc2cc3ccc(=O)oc3cc2O1 [Compound 1, nodakenin] | 112.5 ± 0.71 µM | ACE inhibitory activity (in words) (ACE [1]): promising ACE inhibitory activity
2 | CC(C)(O)[C@H]1Cc2cc3ccc(=O)oc3cc2O1 [Compound 2, nodakenetin] | 102.3 ± 0.29 µM | 
3 | CC(C)(OC1OC(CO)C(O)C(O)C1O)C1Cc2cc3ccc(=O)oc3c(O)c2O1 (stereo not drawn) [Compound 3, isorutarine] | 68.36 ± 0.27 µM | 
4 | O=c1ccc2ccc(O)cc2o1 [Compound 4, umbelliferone] |  | ACE inhibitory activity (in words) (ACE [1]): promising ACE inhibitory activity
5 | O=C(O)c1cc2ccc(=O)oc2cc1O [Compound 5, umbelliferone 6-carboxylic acid] | 156.1 ± 0.41 µM | ACE inhibitory activity (in words) (ACE [1]): promising ACE inhibitory activity; Inhibitory effect on ACE (in words) (ACE [2]): moderate inhibitory effects
6 | O=C(O)c1ccc(O)cc1 [Compound 6, para-hydroxy benzoic acid] | 492.4 ± 0.89 µM | 
7 | CC(C)c1cc2cc3ccc(=O)oc3cc2o1 [Compound 8, 2′-isopropyl psoralene] | 311.1 ± 0.33 µM | Inhibitory effect on ACE (in words) (ACE [2]): weak activity
8 | C/C=C(\C)C(=O)O[C@@H]1c2c(ccc3ccc(=O)oc23)OC(C)(C)[C@@H]1OC(C)=O [Compound 9, 3′(R)-O-acetyl-4′(S)-O-tigloylkhellactone] | 89.36 ± 0.38 µM | 
9 | C/C=C(/C)C(=O)O[C@@H]1c2c(ccc3ccc(=O)oc23)OC(C)(C)[C@@H]1OC(C)=O [Compound 10, cis-3′-acetyl-4′-angeloylkhellactone] | 71.48 ± 0.47 µM | 
10 | CC1(C)Oc2cc3oc(=O)ccc3cc2C[C@@H]1O [Compound 11, decursinol] | 18.3 ± 0.61 µM | 
11 | C/C=C(/C)C(=O)O[C@H]1[C@H](O)c2cc3ccc(=O)oc3cc2OC1(C)C [Compound 12, 4′-hydroxy Pd-C-III] | 9.41 ± 0.69 µM | Type of Inhibition (ACE [3]): competitive inhibition; Ki (ACE [3]): 1.98 µM
12 | CC(C)=CC(=O)O[C@H]1[C@H](O)c2cc3ccc(=O)oc3cc2OC1(C)C [Compound 13, Pd-C-I] | 6.75 ± 0.43 µM | Type of Inhibition (ACE [3]): competitive inhibition; Ki (ACE [3]): 2.35 µM
13 | CC(C)=CC(=O)O[C@@H]1c2cc3ccc(=O)oc3cc2OC(C)(C)[C@H]1OC(=O)C=C(C)C [Compound 14, decursidin] | 20 ± 0.79 µM | 
14 | CC1(C)Oc2cc3oc(=O)ccc3cc2[C@@H](O)[C@@H]1O [Compound 15, (+)-trans-decursidinol] | 4.68 ± 0.22 µM | Type of Inhibition (ACE [3]): competitive inhibition; Ki (ACE [3]): 0.59 µM
15 | CC(C)=CC(=O)O[C@@H]1c2cc3ccc(=O)oc3cc2OC(C)(C)[C@H]1O [Compound 16, Pd-C-II] | 12.4 ± 0.27 µM | 
16 | C/C=C(/C)C(=O)O[C@H]1[C@H](OC(C)=O)c2cc3ccc(=O)oc3cc2OC1(C)C [Compound 17, Pd-C-III] | 15.2 ± 0.39 µM | 
17 | CO[C@@H]1c2cc3ccc(=O)oc3cc2OC(C)(C)[C@H]1OC(=O)C=C(C)C [Compound 18, 4′-methoxy Pd-C-I] | 16 ± 0.92 µM | 
